We go through six compounds from patent publication US9028870B2, “Hydrogel-driven drug dosage form” (Bend Research, Inc., priority 1999, dated 2015).

Converted amounts (≈) assume the structure as drawn.

A short description of series [1]: aqueous solubility as stated for drugs and organic acids.

The compound `CC(C(=O)O)c1ccc2c(c1)[nH]c1ccc(Cl)cc12` (stereo not shown) [Drug 6, carprofen] yielded a solubility in series [1] (pH 5.9, aqueous buffer) of around 15 µg/mL (≈ 54.8 µM).
Consider `NC(=O)N1C(=O)/C(=C(\O)c2cccs2)c2cc(Cl)ccc21` [Drug 7, Tenidap], for which the solubility was found to be 2 µg/mL (≈ 6.24 µM) in “physchem” (pH 3.7, aqueous buffer) and 200 µg/mL (≈ 624 µM) in the series “physchem” (pH 7.4, aqueous buffer).
In turn, `O=C(N[C@@H](Cc1ccccc1)[C@@H](O)C(=O)N1C[C@@H](O)[C@@H](O)C1)c1cc2cc(Cl)ccc2[nH]1` [Drug 4, 5-chloro-1H-indole-2-carboxylic acid [(1S)-benzyl-3-((3R,4S)-dihydroxypyrrolidin-1-yl-)-(2R)-hydroxy-3-oxypropyl]amide] gave a water solubility in series [1] (water) of 80 µg/mL (≈ 175 µM).
Consider `CCCc1nn(C)c2c(=O)[nH]c(-c3cc(S(=O)(=O)N4CCN(C)CC4)ccc3OCC)nc12` [Drug 1, 1-[4-ethoxy-3-(6,7-dihydro-1-methyl-7-oxo-3-propyl-1H-pyrazolo[4,3-d]pyrimidin-5-yl)phenylsulphony]-4-methylpiperazine], for which the solubility in series [1] (pH 6, aqueous buffer) is around 20 µg/mL (≈ 42.1 µM).
“4-[3-[4-(2-methylimidazol-1-yl)phenylthio]phenyl]-3,4,5,6-tetrahydro-2H-pyran-4-carboxamide hemifumarate [Drug 3]” returned a solubility in series [1] (pH 4) of 3.7 mgA/mL.
`O=C1Cc2cc(CCN3CCN(c4nsc5ccccc45)CC3)c(Cl)cc2N1` [Drug 5] yielded a solubility in series [1] (model fasted duodenal solution) of 3 µg/mL (≈ 7.26 µM).
